From patent publication US20220257491A1, “Prebiotic Oral Care Compositions and Methods” (Colgate-Palmolive Company, priority 2021, published 2022)
“And” between values parts separate entries of the source, which are not always exact repeats. Equal values may be shown once.

Legend:
Type in all cases: cell-based
A. actinomycetemcomitans = test: Multi-species biofilm composition: absolute abundance of A. actinomycetemcomitans; details: mean±SD n=3
Description: (§1) Biofilms are grown vertically on Calcium Deficient Hydroxyapatite (CAD-HA) disks (Hitemco Medical, Old Bethpage, USA) using the Amsterdam Active Adhesion model. Biofilms are allowed to establish during 24 h (37° C., 170 rpm) under micro-aerophilic conditions (6% O2, 7% CO2, 7% H2, 80% N2). After this 24 h, disks are rinsed 3 times a day for 3 minutes (RT, 250 rpm), for 3 consecutive days, by transferring the lid containing the disks to a new 24-well plate containing 2 mL/well of the appropriate substrate solution. As a negative control, PBS (pH 5.7) without substrate supplementation is used. After each rinsing step, disks are shortly dip-rinsed in a new 24-well plate containing fresh modified BHI medium (2 mL/well) to remove remaining substrate traces. Subsequently, the lid is transferred to another 24-well plate containing fresh modified BHI medium (2 mL/well), followed by incubation (micro-aerophilic, 37° C., 170 rpm) until the next rinsing step.
(§2) NADM, N-acetyl-D-glucosamine (“NADG”) and D-(+)-mannose are selected to determine their effects on multi-species biofilm composition. […] decrease in absolute numbers in at least four of the pathogenic bacterial species tested in the assay, compared to the control, the results of which are described in Table 1 below. Absolute abundances of bacterial species are shown as mean±SD (n=3) logarithmic values of the genome equivalents per millilitre (log(Geq/mL)).

S. salivarius = test: Multi-species biofilm composition: absolute abundance of S. salivarius; details: mean±SD n=3
Description: as §1
(§3) NADM, N-acetyl-D-glucosamine (“NADG”) and D-(+)-mannose are selected to determine their effects on multi-species biofilm composition. Repeated rinsing of the biofilms with the substrates at a concentration of 1M results in a significant decrease in absolute numbers in at least four of the pathogenic bacterial species tested in the assay, compared to the control, the results of which are described in Table 1 below. Absolute abundances of bacterial species are shown as mean±SD (n=3) logarithmic values of the genome equivalents per millilitre (log(Geq/mL)).

multi-species biofilm = test: Relative multi-species biofilm composition (groups of bacterial species)
Description: as §1, §2
Relative abundances of the different groups (beneficial/commensals, periodontal pathogens, cariogenic pathogens) of bacterial species are shown as mean±SD (n=3) percentage of the genome equivalents per millilitre (% (Geq/mL)). […] NADM: N-acetyl-D-mannosamine; NADG: N-acetyl-D-glucosamine.

[1] = system: F. nucleatum virulence genes; test: Multi-species biofilm virulence gene expression, SYBR RT-qPCR: F. nucleatum; details: for Fold Change in virulence gene expression: ABC transp. perm. / Fold Change in virulence gene expression: EF-G / Fold Change in virulence gene expression: but.-coA transf. / Fold Change in virulence gene expression: hemin receptor / Fold Change in virulence gene expression: hemolysin / Fold Change in virulence gene expression: ompA / Fold Change in virulence gene expression: transposase: relative to control (=1), 2^-ΔΔCt, geometric mean n=3
Description: as §1
(§4) The expression of 33 virulence genes from 4 periodontal pathogens is analysed to evaluate the relative virulence of the substrate-treated biofilms. For all three substrates, virulence gene expression is determined relatively to the control, and these values are also compared between substrates when this is relevant (Tables 5a-5d).

multi-species biofilms = test: Multi-species biofilm organic acid balances (supernatant); details: >0 production, <0 consumption, mean±SD n=3
Description: as §1
To examine the effect of NADM and the influence of the orientation and absence/presence of the N-acetyl group on organic acid production and consumption, supernatant samples from substrate-treated or untreated multi-species biofilms are analysed. […] When comparing relevant significant differences between substrate conditions, an increase in acetate production is observed for NADM compared to D-(+)-mannose (3084±174 vs. 1934±56 mg/L).

P. intermedia = test: Multi-species biofilm composition: absolute abundance of P. intermedia; details: mean±SD n=3
Description: as §1, §3

S. sobrinus = test: Multi-species biofilm composition: absolute abundance of S. sobrinus; details: mean±SD n=3
Description: as §1, §2

[2] = system: human oral keratinocytes (HOK-18A); test: IL-8 levels in supernatants of keratinocyte cultures exposed to substrate-treated biofilms; details: mean±SD n=3
Description: Cultures of immortalized human oral keratinocytes (HOK-18A) are grown. The relative inflammatory potential of the substrate-treated multi-species biofilms is evaluated by analyzing the expression of five inflammatory mediator genes in human oral keratinocytes (HOKs) exposed to the substrate-treated biofilms. […] The IL-8 levels in the cellular supernatant are determined as well. RNA is converted to cDNA and relative expression of inflammatory mediator genes is determined as described above with respect to the cellular housekeeping gene (3-actin.
Table 7: IL-8 levels detected in the supernatants of human oral keratinocytes (HOK-18A) cultures exposed to substrate-treated multi-species biofilms are shown as mean±SD (n=3) values (pg/mL). All substrates are dissolved in PBS at a concentration of 1 M (upper part) or 1% (w/v) (lower part). Values between 0 and 1 represent relative downregulation, values >1 represent relative upregulation. […] For such values, statistically significant differences between two experimental conditions are marked with ‘#1’ (vs. NADM), ‘#2’ (vs. NADG), ‘#3’ (vs. D-(+)-mannose) (P<0.05).

[3] = system: P. gingivalis virulence genes; test: Multi-species biofilm virulence gene expression, SYBR RT-qPCR: P. gingivalis; details: for Fold Change in virulence gene expression: fimA / Fold Change in virulence gene expression: kgp / Fold Change in virulence gene expression: partC / Fold Change in virulence gene expression: rgpA: relative to control, 2^-ΔΔCt, geometric mean n=3
Description: as §1, §4

V. parvula = test: Multi-species biofilm composition: absolute abundance of V. parvula; details: mean±SD n=3
Description: as §1, §3

A. viscosus = test: Multi-species biofilm composition: absolute abundance of A. viscosus; details: mean±SD n=3
Description: as §1, §2

[4] = substrate 1%(w/v) in PBS, mean±SD n=3
[5] = substrate 1 M in PBS, mean±SD n=3

In the case of `CC(=O)N[C@H]1C(O)O[C@H](CO)[C@@H](O)[C@@H]1O` (stereo partly drawn) [NADG, N-acetyl-D-glucosamine, reference compound], the “Absolute abundance Aa (A. actinomycetemcomitans)” value (A. actinomycetemcomitans; substrate 1%(w/v) in PBS) was 9.11 ± 0.20 log(Geq/mL), the “Absolute abundance Aa (A. actinomycetemcomitans)” value (A. actinomycetemcomitans; substrate 1 M in PBS) was 6.6 ± 0.93 log(Geq/mL) and the “Absolute abundance S. sal. (S. salivarius)” value (S. salivarius; substrate 1%(w/v) in PBS) was 2.65 ± 0.00 log(Geq/mL). The “Absolute abundance S. sal. (S. salivarius)” value (S. salivarius; substrate 1 M in PBS) was 4.38 ± 1.23 log(Geq/mL), the “Relative abundance Beneficials/Commensals” value (multi-species biofilm; [4]) was 60.07 ± 8.25 % (Geq/mL) and the “Relative abundance Cariogenic Pathogens” value (multi-species biofilm; [4]) was 0.66±0.27 % (Geq/mL). For the same compound, the “Relative abundance Periodontal Pathogens” value (multi-species biofilm; [4]) was 39.27 ± 7.98 % (Geq/mL), the “Relative abundance Beneficial or commensals” value (multi-species biofilm; [5]) was 97.52±0.82 % (Geq/mL) and the “Relative abundance Cariogenic Pathogens” value (multi-species biofilm; [5]) was 2.35 ± 0.92 % (Geq/mL). The “Relative abundance Periodontal Pathogens” value (multi-species biofilm; [5]) was 0.13±0.10 % (Geq/mL) and 0.13 ± 0.10 *^, #1 % (Geq/mL), the “Decreases in A. actinomycetemcomitans, F. nucleatum, P. gingivalis, P. intermedia and S. sobrinus numbers vs control” value (multi-species biofilm; substrate 1 M, range over the species) was −1.5 to −2.5 log(Geq/mL) and the “Fold Change in virulence gene expression: ABC transp. perm.” value ([1]; substrate 1%) was 0.33 fold. The “Fold Change in virulence gene expression: EF-G” value ([1]; substrate 1%) was 0.10 fold, the “Fold Change in virulence gene expression: but.-coA transf.” value ([1]; substrate 1%) was 0.21 fold and the “Fold Change in virulence gene expression: hemin receptor” value ([1]; substrate 1%) was 0.19 fold. The “Fold Change in virulence gene expression: hemolysin” value ([1]; substrate 1%) was 0.79 fold, the “Fold Change in virulence gene expression: ompA” value ([1]; substrate 1%) was 0.74 fold and the “Fold Change in virulence gene expression: transposase” value ([1]; substrate 1%) was 0.98 fold. For the same compound, the “F. nucleatum hemolysin gene, upregulation” value ([1]; substrate 1 M) was 1.9 fold, the “Fold Change in virulence gene expression: ABC transp. perm.” value ([1]; substrate 1M) was 3.33 fold and the “Fold Change in virulence gene expression: EF-G” value ([1]; substrate 1M) was 1.45 fold. For the same compound, the “Fold Change in virulence gene expression: but.-coA transf.” value ([1]; substrate 1M) was 1.21 fold, the “Fold Change in virulence gene expression: hemin receptor” value ([1]; substrate 1M) was 3.26 fold and the “Fold Change in virulence gene expression: hemolysin” value ([1]; substrate 1M) was 1.90 fold. The “Fold Change in virulence gene expression: ompA” value ([1]; substrate 1M) was 1.33 fold, the “Fold Change in virulence gene expression: transposase” value ([1]; substrate 1M) was 1.27 fold and the “acetate level in biofilm supernatant” value (multi-species biofilms; substrate 1%(w/v)) was 379 ± 10 mg/L. The “butyrate level in biofilm supernatant” value (multi-species biofilms; substrate 1%(w/v)) was 2238 ± 59 mg/L, the “formate level in biofilm supernatant” value (multi-species biofilms; substrate 1%(w/v)) was 4315 ± 198 mg/L and the “lactate level in biofilm supernatant” value (multi-species biofilms; substrate 1%(w/v)) was 125 ± 0 mg/L. The “propionate level in biofilm supernatant” value (multi-species biofilms; substrate 1%(w/v)) was 2205 ± 89 mg/L, the “acetate level in biofilm supernatant” value (multi-species biofilms; substrate 1 M) was 3815 ± 77 mg/L and the “butyrate level in biofilm supernatant” value (multi-species biofilms; substrate 1 M) was 1255±51 mg/L and 1255 ± 51*^, #1, 3 mg/L. The “formate level in biofilm supernatant” value (multi-species biofilms; substrate 1 M) was 352 ± 18 mg/L, the “lactate level in biofilm supernatant” value (multi-species biofilms; substrate 1 M) was 125 ± 0 mg/L and the “propionate level in biofilm supernatant” value (multi-species biofilms; substrate 1 M) was 2750 ± 40 mg/L. The “Absolute abundance Pi (P. intermedia)” value (P. intermedia; substrate 1%(w/v) in PBS) was 8.17 ± 0.22 log(Geq/mL), the “Absolute abundance Pi (P. intermedia)” value (P. intermedia; substrate 1 M in PBS) was 6.93 ± 0.62 log(Geq/mL) and the “Absolute abundance S. sobrinus” value (S. sobrinus; substrate 1%(w/v) in PBS) was 4.87 ± 0.22 log(Geq/mL). The “Absolute abundance S. sobrinus” value (S. sobrinus; substrate 1 M in PBS) was 4.16 ± 0.44 log(Geq/mL), the “IL-8 levels in supernatants of HOK-18A cultures” value ([2]; biofilm rinsed with substrate 1%(w/v)) was 54.75 ± 11.66 pg/mL and the “IL-8 levels in supernatants of HOK-18A cultures” value ([2]; biofilm rinsed with substrate 1M) was 0.22 ± 0.32 pg/mL. The “P. gingivalis partC expression decrease” value ([3]; substrate 1%(w/v)) was 2.8 fold, the “Fold Change in virulence gene expression: fimA” value ([3]; substrate 1%) was 1.15 fold and the “Fold Change in virulence gene expression: kgp” value ([3]; substrate 1%) was 1.81 fold. For the same compound, the “Fold Change in virulence gene expression: partC” value ([3]; substrate 1%) was 0.36 fold, the “Fold Change in virulence gene expression: rgpA” value ([3]; substrate 1%) was 1.31 fold and the “Fold Change in virulence gene expression: fimA” value ([3]; substrate 1M) was 0.79 fold. For the same compound, the “Fold Change in virulence gene expression: kgp” value ([3]; substrate 1M) was 0.07 fold, the “Fold Change in virulence gene expression: partC” value ([3]; substrate 1M) was 0.19 fold and the “Fold Change in virulence gene expression: rgpA” value ([3]; substrate 1M) was 0.39 fold. The “Absolute abundance Vp (V. parvula)” value (V. parvula; substrate 1%(w/v) in PBS) was 9.77 ± 0.19 log(Geq/mL), the “Absolute abundance Vp (V. parvula)” value (V. parvula; substrate 1 M in PBS) was 10.57 ± 0.24 log(Geq/mL) and the “Absolute abundance Av (A. viscosus)” value (A. viscosus; substrate 1%(w/v) in PBS) was 7.83 ± 0.31 log(Geq/mL). The “Absolute abundance Av (A. viscosus)” value (A. viscosus; substrate 1 M in PBS) was 6.92 ± 0.45 log(Geq/mL).
